Assay results published in patent US20220267271A1, “WNT ACTIVATORS AND METHODS OF USE” (MAYO FOUNDATION FOR MEDICAL EDUCATION AND RESEARCH, priority 2019, published 2022).

How the values were obtained:
tau = assay: Tau phosphorylation in human iPSC-derived neurons (Western blot AT8/HT7); format: cell-based; settings: 0.4 μM, 48 h
Experimental: (§1) Human iPSC-derived neurons were treated with 1015 (0.4 μM) for 48 h, and the mRNA levels of axin2 (B), neuroD1 (C) and SOX2 (D) were determined by qPCR. All the values are the average of three independent experiments with the SE values indicated by error bars. * P<0.05, ** P<0.01 verse corresponding control. (E) Human iPSC-derived neurons were treated with 1015 (0.4 μM) for 48 h, and the levels of phopspho-tau (p-tau) and total tau were determined by Western blotting with specific antibodies AT8 and HT7, respectively. This experiment is a representative of two such experiments performed with similar data.
(§2) NeuroD1, a proneural basic helix-loop-helix (bHLH) transcription factor, plays a critical role in CNS development, and is important for survival of neuronal progenitor cells. There is a TCF/LEF regulatory element in the Neurod1 promoter, and NeuroD1 is a specific target of Wnt/β-catenin signaling. […] In addition, 1015 also induces neural stem cell marker SOX2 expression in human iPSC-derived neurons ([…]). Importantly, 1015 suppresses tau phosphorylation in human iPSC-derived neurons (FIG. 16 at D).

[1] = Pharmacokinetic study in Balb/c mice following intravenous administration; format: in vivo; settings: male Balb/c mice, IV 2 mg/kg
Experimental: (A) Plasma and brain concentration—time curves of 1015 in male Balb/c mice following intravenous (2 mg/kg) administration (n=4 at each time point). (B) in vivo pharmacokinetic parameters of 1015. B/P: brain/plasma concentration ratio (30 min after IV injection with 2 mg/kg) calculated using 1 g/mL brain density.
Pharmacokinetic study of compound 1015 in Balb/c mice following intravenous administration: Male Balb/c mice (11-12 weeks old, body weight 21.9 to 31.3 g and average body weight across all groups 25.6 g, SD=2.19 g) were used in this study. The animals were randomly assigned to the treatment groups before the pharmacokinetic study; all animals were fasted for 4 h before intravenous injection of 1015 at 2 mg/kg dissolved in Kolliphor HS-physiological saline (20%:80%). Eight time points (5, 15, 30, 60, 120, 240, 480 and 1440 min) were set for this pharmacokinetic study. Each of the time point treatment group included 4 animals. There was also a control group of 2 animals. Mice were injected IV with 2,2,2-tribromoethanol at the dose of 150 mg/kg prior to drawing the blood. Blood collection was performed from the orbital sinus in microtainers containing K2EDTA. Animals were sacrificed by cervical dislocation after blood samples collection. Brain and plasma samples were immediately processed, flash-frozen and stored at −70° C. until subsequent analysis.
Plasma samples (50 μl) were mixed with 200 μl of IS solution. After mixing by pipetting and centrifuging for 4 min at 6000 rpm, 2 μl of each supernatant was injected into LC-MS/MS system. Solution of compound IS-22665-01 (200 ng/ml in acetonitrile-methanol mixture, 1:1, v/v) was used as internal standard (IS) for quantification of 1015 in plasma samples. Brain samples (100 mg±1 mg) were dispersed in 500 μl of IS200(80) using zirconium oxide beads (150 mg±5 mg) in The Bullet Blender® homogenizer for 60 seconds at speed 8. […] Solution of compound IS-22665-01 (200 ng/ml in water-acetonitrile-methanol mixture, 2:4:4, v/v/v) was used as internal standard (IS200(80)) for quantification of 1015 in brain samples. […]

Wnt/β-catenin signaling = Wnt/β-catenin signaling in human iPSC-derived neurons (Western blot, qPCR); format: cell-based
Experimental: as §1, §2

PS19 mice = assay: Efficacy study in PS19 mice (tauopathy model); format: in vivo; settings: IP 15 mg/kg once daily, 8 weeks
Experimental: PS19 mice at 33 weeks of age were treated with 1015 (IP, 15 mg/kg) or vehicle [Kolliphor HS-physiological saline (20%:80%)] by a once daily dose schedule for 8 weeks (5 injections per week). (A) Body weight changes during the course of treatment were assessed. (B) The level of Wnt specific target neuroD1 in cortex was determined by qPCR. All the values are the average of from 5-7 mice with the SE values indicated by error bars.* P<0.05, * P<0.01 verse Non-Tg treated with vehicle or PS19 mice treated with vehicle.
(A) PS19 mice at 33 weeks of age were treated with 1015 (IP, 15 mg/kg) or vehicle [Kolliphor HS-physiological saline (20%:80%)] by a once daily dose schedule for 8 weeks (5 injections per week). The levels of tau phosphorylation (p-tau) and total tau in cortex were determined by Western blotting with p-tau antibody AT8, p-tau antibody AT180, and tau antibody HT7, respectively. (B) The intensities of p-tau bands were quantified and normalized to the corresponding signal for actin. The results represented in the histograms are shown as the mean±SE, n=5.
PS19 mice at 33 weeks of age were treated with 1015 (IP, 15 mg/kg) or vehicle [Kolliphor HS-physiological saline (20%:80%)] by a once daily dose schedule for 8 weeks (5 injections per week). (A-D) The levels of cytokines IL6, TNFa, TGF1b and IL1b in cortex were determined by qPCR. All the values are the average of from 5-7 mice with the SE values indicated by error bars. * P<0.05, * P<0.01, ** P<0.001.
1015 activates Wnt/β-catenin signaling and prevents body weight loss in PS19 mice: PS19 is a widely used tauopathy model which recapitulates many AD-related phenotypes. […] Therefore, the PS19 mouse model was used for efficacy studies. There was a noticeable drop in weight in all groups after initiation of daily dosing in each group, which is most likely a consequence of the sudden daily manipulation of the mice (FIG. 17 at A).

β-catenin = assay: Cytosolic free β-catenin level in HEK293 cells; format: cell-based
From the text: Niclosamide (5-chloro-N-[2-chloro-4-nitrophenyl]-2-hydroxy benzamide), an FDA approved antihelminthic drug, suppresses Wnt/β-catenin signaling by inducing Wnt co-receptor LRP6 degradation in cancer cells. […] CI-994 is an orally active class I histone deacetylase (HDAC) inhibitor [37]. CI-994 increased Wnt reporter activity (FIG. 2B) and cytosolic free β-catenin level in HEK293 cells.

Row | Compound | tau phosphorylation (tau) | concentration in brain versus plasma [1] | half-life (t1/2), brain versus plasma [1] | Kp at 30 min ([1]; mouse, brain/plasma, 30 min after injection, read-out: brain concentration/plasma concentration ratio (B/P)) | NeuroD1 expression (mRNA) (Wnt/β-catenin signaling; 0.4 μM, 48 h) | Wnt specific target axin2 expression (mRNA) (Wnt/β-catenin signaling; 0.4 μM, 48 h) | neural stem cell marker SOX2 expression (mRNA) (Wnt/β-catenin signaling; 0.4 μM, 48 h) | Wnt co-receptor LRP6 level (Wnt/β-catenin signaling; 24 h) | body weight loss (PS19 mice; 5 injections per week) | tau phosphorylation in cortex (PS19 mice; AT8 and AT180) | neuroD1 expression in brain (PS19 mice; cortex, qPCR) | neuroinflammatory cytokine expression (IL6, TNFa, TGF1b, IL1b) (PS19 mice; cortex, qPCR) | cytosolic free β-catenin level (β-catenin)
1 | Nc1ccccc1NC(=O)c1ccc(C(=O)NCC2CCN2C2CCCC2)cn1 (stereo not shown) [Compound 1015] | suppresses | much higher concentration in brain than in plasma | much longer in brain than in plasma | 5.6 | significantly enhances | increases | induces | enhances | significantly prevented | significantly suppresses | restored, but not over induced | inhibited | 
2 | CC(=O)Nc1ccc(C(=O)Nc2ccccc2N)cc1 [CI-994, 4-(acetylamino)-N-(2-aminophenyl)benzamide, reference compound] |  |  |  |  |  |  |  |  |  |  |  |  | increased
